ChEMBL document CHEMBL1137435, “Synthesis and application of 2'-fluoro-substituted cap analogs” (Bioorg Med Chem Lett, 2007)

Test: Capping efficiency on mRNA after 2 hrs by gel shift assay

Activity	SMILES
61%	C[n+]1cn([C@H]2O[C@@H](COP(=O)([O-])OP(=O)(O)OP(=O)(O)OC[C@H]3O[C@@H](n4cnc5c(=O)[nH]c(N)nc54)[C@H](O)[C@@H]3O)[C@H](O)[C@@H]2O)c2nc(N)[nH]c(=O)c21
70%	C[n+]1cn([C@H]2O[C@@H](COP(=O)([O-])OP(=O)(O)OP(=O)(O)OC[C@H]3O[C@@H](n4cnc5c(=O)[nH]c(N)nc54)[C@H](O)[C@@H]3O)[C@H](O)[C@@H]2F)c2nc(N)[nH]c(=O)c21
52%	C[n+]1cn([C@@H]2O[C@H](COP(=O)([O-])OP(=O)([O-])OP(=O)(O)OC[C@@H]3O[C@H](n4c[n+](C)c5c(=O)[nH]c(N)nc54)[C@@H](F)[C@H]3O)[C@@H](O)[C@H]2O)c2nc(N)[nH]c(=O)c21
